Test results: PMC6278284, “Synthesis of Jacaranone-Derived Nitrogenous Cyclohexadienones and Their Antiproliferative and Antiprotozoal Activities” (Molecules, 2018)
Several values for one entry are separate records, joined by “and”; a condition that tells them apart may be missing. Equal values may be shown once. Read-outs that look alike come from different tables or passages of the source.

Key:
[1] = test system: MRC-5 non-tumorigenic lung fibroblasts; assay: XTT viability assay, MRC-5; assay type: cell-based, human; details: 72 h; for viability at 5 µg/mL / viability at 50 µg/mL: Homo sapiens, MRC5, read-out: metabolic active cells in % of control; for viability at 5 µg/mL: MRC-5, 5 µg/mL; for viability at 50 µg/mL: MRC-5, 50 µg/mL; for cytotoxicity against human MRC-5 cells (in words): 5 µg/mL
Experimental: (§1) Human CCRF-CEM leukemia and MDA-MB-231 breast cancer cells lines were kept in RPMI1640 medium (Gibco®, ThermoFisher Scientific Inc., New York, NY, USA), supplemented with 2 mM L-glutamine (Gibco®), 10% heat-inactivated foetal bovine serum (FBS, Gibco®), 100 units/mL Penicillin (PAA), and 100 µg/mL Streptomycin (Gibco®) (1% Pen/Strep). HCT-116 and U251 cells were cultured in high-glucose Dulbecco’s Modified Eagle Medium (DMEM, Gibco®) containing 2 mM L-glutamine, 10% FBS, and 1% Pen/Strep. MRC-5 cells were grown in Minimum Essential Medium (MEM, Gibco®) supplemented with 2 mM L-glutamine, 10% FBS, and 1% Pen/Strep. All cells were kept in a humidified 5% CO2 atmosphere at 37 °C and passaged at 90% confluence.
(§2) A Cell Proliferation Kit II (XTT) was purchased from Sigma-Aldrich and performed as described previously and in accordance with the manufacturer’s protocol. In brief, adherent cell lines were seeded at a density of 50,000 cells/mL or 100,000 cells/mL (MRC-5) in 96 well plates (100 µL, flat bottom) and grown for 24 h before test compounds were added. Suspension cells (CCRF-CEM) were seeded at 100,000 cells/mL and test compounds were added immediately. After 72 h, XTT solution was added for another 90 min or 4 h (CCRF-CEM cells) and absorbance was measured at 490 nm with a reference wave length of 650 nm (Hidex Sense Microplate Reader 425-301, Hidex, Turku, Finland). Results are expressed as a percentage of the vehicle-treated (0.5% DMSO) control cells. Vinblastine served as the positive control (0.01 µg/mL).

CCRF-CEM leukemia cells = assay: XTT viability assay, CCRF-CEM; assay type: cell-based; details: Homo sapiens, 72 h, read-out: metabolic active cells in % of control
Experimental: as §1, §2

U251 glioblastoma cells = assay: XTT viability assay, U251; assay type: cell-based; details: Homo sapiens, U-251, 72 h, read-out: metabolic active cells in % of control; for viability at 5 µg/mL: U251, 5 µg/mL; for viability at 50 µg/mL: U251, 50 µg/mL
Experimental: as §1, §2

[2] = test system: HCT-116 colon cancer cells; assay: XTT viability assay, HCT-116; assay type: cell-based; details: Homo sapiens, 72 h, read-out: metabolic active cells in % of control; for viability at 5 µg/mL: HCT 116, 5 µg/mL; for viability at 50 µg/mL: HCT 116, 50 µg/mL
Experimental: as §1, §2

[3] = test system: P. falciparum, strain NF54, erythrocytic stages; assay: In vitro growth inhibition assay of Plasmodium falciparum NF54 ([3H]-hypoxanthine incorporation); assay type: cell-based; details: for IC50: Plasmodium falciparum, strain NF54, erythrocytic stages, read-out: P. falc. IC50; for SI (IC50 in L6 cells/IC50 P. falciparum): ratio IC50 L6 / IC50 P. falciparum NF54
Experimental: In vitro activity against erythrocytic stages of P. falciparum was determined by a modified [^3H]-hypoxanthine incorporation assay using the drug-sensitive NF54 strain and the standard drug, chloroquine (Sigma C6628). Briefly, parasite cultures incubated in RPMI 1640 medium with 5% AlbuMAX^TM (without hypoxanthine) were exposed to serial drug dilutions in microtiter plates. After 48 h of incubation at 37 °C in a reduced oxygen atmosphere, 0.5 μCi [^3H]-hypoxanthine was added to each well of the plate. Cultures were incubated for a further 24 h before they were harvested onto glass-fiber filters and washed with distilled water. The radioactivity was counted using a Betaplate^TM liquid scintillation counter (Wallac, Zurich). The results were recorded as counts per minute (CPM) per well at each drug concentration and expressed as a percentage of the untreated controls. IC50 values were calculated from the sigmoidal inhibition curves using Microsoft Excel.

[4] = test system: T. brucei rhodesiense, strain STIB900 trypomastigote forms; assay: In vitro growth inhibition assay of Trypanosoma brucei rhodesiense (Alamar Blue); assay type: cell-based; details: for IC50: 72 h, strain STIB900, trypomastigote forms, read-out: T.b.rhod. IC50; for SI (IC50 in L6 cells/IC50 T. b. rhodesiense): ratio IC50 L6 / IC50 T. b. rhodesiense STIB900
Experimental: Trypanosoma brucei rhodesiense, STIB 900 strain, and the standard drug, melarsoprol, were used for the assay. Minimum Essential Medium (50 μL) supplemented with 25 mM HEPES, 1g/L additional glucose, 1% MEM non-essential amino acids (100×), 0.2 mM 2-mercaptoethanol, 1 mM Na-pyruvate, and 15% heat-inactivated horse serum was added to each well of a 96-well microtiter plate. Serial drug dilutions of 11 three-fold dilution steps covering a range from 100 to 0.002 μg/mL were prepared. Then, 4 × 10^3 bloodstream forms of T. b. rhodesiense (STIB 900) in 50 μL were added to each well and the plate was incubated at 37 °C under a 5% CO2 atmosphere for 72 h. 10 μL Alamar Blue (resazurin, 12.5 mg in 100 mL double-distilled water) was then added to each well and incubation continued for a further 2–4 h. Then, the plates were read with a Spectramax Gemini XS microplate fluorometer (Molecular Devices Cooperation, Sunnyvale, CA, USA) using an excitation wavelength of 536 nm and an emission wavelength of 588 nm. The IC50 values were calculated from the sigmoidal inhibition curves using the microplate reader software, Softmax Pro (Molecular Devices Cooperation, Sunnyvale, CA, USA). Melarsoprol was used as the control.

[5] = test system: L6 cells rat skeletal myoblasts; assay: Cytotoxicity against L6 cells (Alamar Blue); assay type: cell-based; details: L6 rat skeletal myoblasts, 72 h; read-out: Cyt. L6 IC50
Experimental: Assays were performed in 96-well microtiter plates, each well containing 100 μL of RPMI 1640 medium supplemented with 1% L-glutamine (200 mM) and 10% foetal bovine serum, and 4000 L6 cells (a […] cell line derived from rat skeletal myoblasts). Serial drug dilutions of 11 threefold dilution steps covering a range from 100 to 0.002 μg/mL were prepared. After 72 h of incubation, the plates were inspected under an inverted microscope to assure growth of the controls and sterile conditions. 10 μL of Alamar Blue solution was then added to each well and the plates incubated for another 2 h. Then, the plates were read with a Spectramax Gemini XS microplate fluorometer (Molecular Devices Cooperation, Sunnyvale, CA, USA) using an excitation wavelength of 536 nm and an emission wavelength of 588 nm. The IC50 values were calculated by linear regression from the sigmoidal dose inhibition curves using the microplate reader software, Softmax Pro (Molecular Devices Cooperation, Sunnyvale, CA, USA). Podophyllotoxin (Sigma P4405) was used as the control.

Compound	melting point	IC50 [3] [µM]	IC50 ([4]; Trypanosoma brucei) [µM]	IC50 [4] [µM]	viability at 5 µg/mL [1] [%]	viability at 50 µg/mL [1] [%]	viability at 5 µg/mL (CCRF-CEM leukemia cells) [%]	viability at 50 µg/mL (CCRF-CEM leukemia cells) [%]	viability at 5 µg/mL (U251 glioblastoma cells) [%]	viability at 50 µg/mL (U251 glioblastoma cells) [%]	viability at 5 µg/mL [2] [%]	viability at 50 µg/mL [2] [%]	SI (IC50 in L6 cells/IC50 P. falciparum) [3]	SI (IC50 in L6 cells/IC50 T. b. rhodesiense) [4]	IC50 [5] [µM]	cytotoxicity against human MRC-5 cells (in words) [1]
O=C1C=CC(O)(CCN2C(=O)C=CC2=O)C=C1 [Compound 13b, N-[2-(1-Hydroxy-4-oxocyclohexa-2,5-dien-1-yl)ethyl]maleimide]	151 to 152 °C	4.42	2.15	–	14.6	0.62	-1.08	3.46	95.2	-0.41	0.13	-0.32	6.1	12.5	26.8	–
O=C1C=CC(O)(CCN2C(=O)c3cccnc3C2=O)C=C1 [Compound 13f, N-[2-(1-Hydroxy-4-oxocyclohexa-2,5-dien-1-yl)ethyl]pyridine-2,3-dicarboximide]	167 to 168 °C	28	–	–	109	112	99.8	21.7	91.8	93.7	91	92.8	5.5	3.4	153	did not show any cytotoxicity
O=C1C=CC(O)(CCN2C(=O)C3CC=CCC3C2=O)C=C1 (stereo not drawn) [Compound 13j, N-[2-(1-Hydroxy-4-oxocyclohexa-2,5-dien-1-yl)ethyl]-1,2,3,6-tetrahydrophthalimide]	145 to 146 °C	3.93	0.97	–	96.1	50.3	89.9	15.4	96.5	76.7	98.6	63.3	2.0	8.3	8.04	did not show any cytotoxicity
O=C1C=CC(O)(CCN2Cc3ccccc3C2)C=C1 [Compound 14a, N-[2-(1-Hydroxy-4-oxocyclohexa-2,5-dien-1-yl)ethyl]isoindoline]	103 to 104 °C and 103 °C	2.91	0.57	–	119	95.1	94.6	58	99.5	95.5	97.3	62.1	1.0	4.9	2.81	did not show any cytotoxicity
O=C1C=CC(O)(CCN2CCOCC2)C=C1 [Compound 14c, N-[2-(1-Hydroxy-4-oxocyclohexa-2,5-dien-1-yl)ethyl]morpholine]	98 to 99 °C	10.9	0.27	–	141	0.79	22.8	-0.18	68.3	1.11	87.7	1.58	0.3	12.9	3.46	–

Second part, led by results:

melting point	IC50 [3] [µM]	IC50 ([4]; Trypanosoma brucei) [µM]	IC50 [4] [µM]	Compound	viability at 5 µg/mL [1] [%]	viability at 50 µg/mL [1] [%]	viability at 5 µg/mL (CCRF-CEM leukemia cells) [%]	viability at 50 µg/mL (CCRF-CEM leukemia cells) [%]	viability at 5 µg/mL (U251 glioblastoma cells) [%]	viability at 50 µg/mL (U251 glioblastoma cells) [%]	viability at 5 µg/mL [2] [%]	viability at 50 µg/mL [2] [%]	SI (IC50 in L6 cells/IC50 P. falciparum) [3]	SI (IC50 in L6 cells/IC50 T. b. rhodesiense) [4]	IC50 [5] [µM]	cytotoxicity against human MRC-5 cells (in words) [1]
142 to 143 °C	11.8	> 10	15.3	O=C1C=CC(O)(CCN2C(=O)COCC2=O)C=C1 [Compound 13g, N-[2-(1-Hydroxy-4-oxocyclohexa-2,5-dien-1-yl)ethyl]morpholine-3,5-dione]	116	89.6	86.9	8.05	94.7	65.6	96	68.1	6.6	5.1	77.5	did not show any cytotoxicity
–	1.28	0.8	–	O=C1C=CC(O)(CCN2C(=O)C3=C(CCCC3)C2=O)C=C1 [Compound 13i, N-[2-(1-Hydroxy-4-oxocyclohexa-2,5-dien-1-yl)ethyl]-3,4,5,6-tetrahydrophthalimide]	5.69	0.51	2.26	1.23	15.9	0	1.04	0.15	–	–	3.52	–
